Source: US8609173B2, “Compositions comprising sweetness enhancers and methods of making them” (Senomyx Inc., priority 2008, dated 2013)
In brackets after ≈: the same amount, converted by molar mass.

How the values were obtained:
Panelists = assay: Paired comparison taste test, strawberry yogurt; format: in vivo, Human
Method: Two strawberry yogurt compositions were prepared and then mixed with plain, nonfat yogurt. One strawberry fruit composition was sweetened with a mixture of sucrose and fructose, and a second strawberry fruit composition was sweetened with ⅓ less sucrose and 3 ppm of 3-(4-amino-2,2-dioxide-1H-benzo[c][1,2,6]thiadiazin-5-yloxy)-2′,2′-dimethyl-N-propylpropanamide. The compositions of the two fruit compositions are as follows:
Panelists evaluated two yogurt compositions in a paired comparison taste test procedure and were instructed to select the sweeter of the two samples. They perform a total of three paired comparison tests each containing the following samples: Strawberry Yogurt with 100% Sucrose vs. Strawberry Yogurt with 66.6% Sucrose+3 ppm (8.47 μM) 3-(4-amino-2,2-dioxide-1H-benzo[c][1,2,6]thiadiazin-5-yloxy)-2′,2′-dimethyl-N-propylpropanamide.
Strawberry Yogurt Preparation: 1000 g batches of finished strawberry yogurt was made by adding 16% (by weight) strawberry fruit prep to 84% (by weight) plain nonfat yogurt and mixing with a wire whip until homogenous, a minimum of five minutes. The Compound A was dissolved into a 0.10% concentration level in propylene glycol and then added to the strawberry yogurt and mixed with a wire whip until homogenous, about 5 minutes.

[1] = Solubility in buffers and food grade solvents (Table 14); format: physicochemical
Method: Solubility of 3-(4-amino-2,2-dioxide-1H-benzo[c][1,2,6]thiadiazin-5-yloxy)-2′,2′-dimethyl-N-propylpropanamide
Various solutions of 3-(4-amino-2,2-dioxide-1H-benzo[c][1,2,6]thiadiazin-5-yloxy)-2′,2′-dimethyl-N-propylpropanamide 3-(4-amino-2,2-dioxide-1H-benzo[c][1,2,6]thiadiazin-5-yloxy)-2′,2′-dimethyl-N-propylpropanamide were prepared as indicated below.

**Q.** For `CCCNC(=O)C(C)(C)COc1cccc2c1C(N)=NS(=O)(=O)N2` [3-(4-amino-2,2-dioxide-1H-benzo[c][1,2,6]thiadiazin-5-yloxy)-2′,2′-dimethyl-N-propylpropanamide], which “Sample selected as sweeter by panelists, Total” value (Panelists; Strawberry Yogurt with 4.5% Sucrose + 3 ppm (8.47 μM) compound chosen, vs 6.7% Sucrose, n = 72) is on record?
**A.** 33

**Q.** And the “Sweetness comparison (conclusion)” value (Panelists; Strawberry Yogurt with 66.6% Sucrose + 3 ppm (8.47 μM) compound vs 100% Sucrose, p>0.10)?
**A.** not significantly different in sweetness

**Q.** What about the “Solubility (ppm)” value ([1]; Citric Acid Buffer, pH 2.8) of the same molecule?
**A.** 50 ppm

**Q.** What about the “Solubility (ppm)” value ([1]; Citric Acid Buffer, pH 4.0) of the same molecule?
**A.** 50 ppm

**Q.** And the “Solubility (ppm)” value ([1]; Ethanol)?
**A.** 3757 ppm

**Q.** What about the “Solubility (ppm)” value ([1]; Glycerol) of the same molecule?
**A.** 2800 ppm

**Q.** What about the “Solubility (ppm)” value ([1]; Phosphate Buffer, pH 7.1) of the same molecule?
**A.** 602 ppm

**Q.** And the “Solubility (ppm)” value ([1]; Propylene Glycol (PG))?
**A.** 6096 ppm

**Q.** And the “Solubility (ppm)” value ([1]; Triacetin)?
**A.** 567 ppm

**Q.** And the solubility ([1]; aqueous buffer, Citric Acid Buffer, pH 4.0)?
**A.** 140 µM (≈ 49.6 µg/mL)

**Q.** And the “aqueous solubility (conclusion)” value ([1]; aqueous buffers pH 2.8-7.1)?
**A.** pH dependent, and lower solubility was found at low pH

**Q.** What about the solubility ([1]; citric acid buffer, pH 2.8, aqueous buffer) of the same molecule?
**A.** 140 µM (≈ 49.6 µg/mL)

**Q.** And the solubility ([1]; ethanol, organic solvent or mixture)?
**A.** 10600 µM (≈ 3760 µg/mL)

**Q.** And the solubility ([1]; glycerol, organic solvent or mixture)?
**A.** 7900 µM (≈ 2800 µg/mL)

**Q.** And the solubility ([1]; organic solvent or mixture, Propylene Glycol (PG))?
**A.** 17200 µM (≈ 6100 µg/mL)

**Q.** What about the solubility ([1]; phosphate buffer, pH 7.1, aqueous buffer) of the same molecule?
**A.** 1700 µM (≈ 603 µg/mL)

**Q.** And the solubility ([1]; triacetin, organic solvent or mixture)?
**A.** 1600 µM (≈ 567 µg/mL)
